Measured values taken from US11352339B2 (MISSION THERAPEUTICS LIMITED, priority 2016, dated 2022).

Target: USP30 (Homo sapiens (Human), UniProt Q70CQ3)
Test: USP30 Biochemical IC50 Assay
Settings: fluorescence polarisation, TAMRA labelled peptide linked to ubiquitin; 30 min pre-incubation, read after 2 h; read-out: IC50 range
Method in brief: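 Enzyme preincubated 30 min at room temperature with compound, then 50 nM TAMRA-labelled isopeptide-linked ubiquitin–peptide substrate added. Fluorescence polarisation (ex 540/em 590 nm) read at once and after 2 h at room temperature; duplicate reactions.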

Chain of USP30 (Q70CQ3 57-517): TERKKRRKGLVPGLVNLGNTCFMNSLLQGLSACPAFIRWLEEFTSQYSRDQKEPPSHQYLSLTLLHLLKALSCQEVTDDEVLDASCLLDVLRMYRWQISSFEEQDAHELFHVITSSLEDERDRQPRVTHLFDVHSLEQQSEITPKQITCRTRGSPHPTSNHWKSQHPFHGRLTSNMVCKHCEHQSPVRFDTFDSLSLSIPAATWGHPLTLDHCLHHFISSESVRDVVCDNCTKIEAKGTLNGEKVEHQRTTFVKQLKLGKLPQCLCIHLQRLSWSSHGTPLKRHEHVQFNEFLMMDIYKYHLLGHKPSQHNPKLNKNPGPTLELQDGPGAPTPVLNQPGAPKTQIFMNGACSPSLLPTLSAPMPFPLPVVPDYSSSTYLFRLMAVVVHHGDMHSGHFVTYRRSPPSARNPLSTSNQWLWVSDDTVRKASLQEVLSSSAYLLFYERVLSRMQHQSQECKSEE

| SMILES | IC50 [nM] |
| --- | --- |
| N#CN1CCC[C@H]1c1nc2cc(-c3cccc(OC(F)(F)F)c3)ccc2o1 [Example 133, (S)-2-(5-(3-(Trifluoromethoxy)phenyl)-benzo[d]oxazol-2-yl)pyrrolidine-1-carbonitrile] | 100 to 1000 |
| Cc1n[nH]c2cc(-c3ccc4oc([C@@H]5CCCN5C#N)nc4c3)ccc12 [Example 134, (S)-2-(5-(3-Methyl-1H-indazol-6-yl)-benzo[d]oxazol-2-yl)pyrrolidine-1-carbonitrile] | 1000 to 10000 |
| Cn1ncc2cc(-c3ccc4oc([C@@H]5CCCN5C#N)nc4c3)ccc21 [Example 135, (S)-2-(5-(1-Methyl-1H-indazol-5-yl)-benzo[d]oxazol-2-yl)pyrrolidine-1-carbonitrile] | 1000 to 10000 |
| N#CN1CCC[C@H]1c1nc2cc(-c3cccc([N+](=O)[O-])c3)ccc2o1 [Example 136, (S)-2-(5-(3-Nitrophenyl)benzo[d]oxazol-2-yl)pyrrolidine-1-carbonitrile] | 100 to 1000 |
| N#Cc1cccc(-c2ccc3oc([C@@H]4CCCN4C#N)nc3c2)c1F [Example 137, (S)-2-(5-(3-Cyano-2-fluorophenyl)-benzo[d]oxazol-2-yl)pyrrolidine-1-carbonitrile] | 1000 to 10000 |
| N#Cc1cc(F)cc(-c2ccc3oc([C@@H]4CCCN4C#N)nc3c2)c1 [Example 138, (S)-2-(5-(3-Cyano-5-fluorophenyl)-benzo[d]oxazol-2-yl)pyrrolidine-1-carbonitrile] | 100 to 1000 |
| Cc1ccc(S(=O)(=O)NCc2ccccc2)cc1-c1ccc2oc([C@@H]3CCCN3C#N)nc2c1 [Example 139, (S)-N-Benzyl-3-(2-(1-cyanopyrrolidin-2-yl)-benzo[d]oxazol-5-yl)-4-methyl-benzenesulfonamide] | 1000 to 10000 |
| N#CN1CCCC1c1nnc(-c2cccc(-c3ccccc3)c2)o1 (stereo not drawn) [Example 140, 2-(5-([1,1′-Biphenyl]-3-yl)-1,3,4-oxadiazol-2-yl)pyrrolidine-1-carbonitrile] | 1000 to 10000 |
| N#CN1CCC[C@H]1c1nc(-c2cccc(-c3ccccc3)c2)no1 [Example 141, (S)-2-(3-([1,1′-Biphenyl]-3-yl)-1,2,4-oxadiazol-5-yl)pyrrolidine-1-carbonitrile] | 100 to 1000 |
| N#CN1CCCC1c1noc(-c2cccc(-c3ccccc3)n2)n1 (stereo not drawn) [Example 142, 2-(5-(6-Phenylpyridin-2-yl)-1,2,4-oxadiazol-3-yl)pyrrolidine-1-carbonitrile] | 1000 to 10000 |
| Cn1nccc1-c1cccc(-c2nc(C3CCCN3C#N)no2)c1 (stereo not drawn) [Example 143, 2-(5-(3-(1-Methyl-1H-pyrazol-5-yl)phenyl)-1,2,4-oxadiazol-3-yl)pyrrolidine-1-carbonitrile] | 1000 to 10000 |
| COc1cc(-c2cccc(-c3nc(C4CCCN4C#N)no3)c2)ccn1 (stereo not drawn) [Example 144, 2-(5-(3-(2-Methoxypyridin-4-yl)phenyl)-1,2,4-oxadiazol-3-yl)pyrrolidine-1-carbonitrile] | 1000 to 10000 |
| COc1ccc(C#N)cc1-c1cccc(-c2nc(C3CCCN3C#N)no2)c1 (stereo not drawn) [Example 146, 2-(5-(5′-Cyano-2′-methoxy-[1,1′-biphenyl]-3-yl)-1,2,4-oxadiazol-3-yl)pyrrolidine-1-carbonitrile] | 100 to 1000 |
| Cc1noc(C)c1-c1cccc(-c2nc(C3CCCN3C#N)no2)c1 (stereo not drawn) [Example 147, 2-(5-(3-(3,5-Dimethylisoxazol-4-yl)phenyl)-1,2,4-oxadiazol-3-yl)pyrrolidine-1-carbonitrile] | 1000 to 10000 |
| Cn1cc(-c2cccc(-c3nc(C4CCCN4C#N)no3)c2)cn1 (stereo not drawn) [Example 148, 2-(5-(3-(1-Methyl-1H-pyrazol-4-yl)phenyl)-1,2,4-oxadiazol-3-yl)pyrrolidine-1-carbonitrile] | 1000 to 10000 |
| N#CN1CCCC1c1noc(-c2cccc(-c3ccc(C(N)=O)cc3)c2)n1 (stereo not drawn) [Example 149, 3′-(3-(1-Cyanopyrrolidin-2-yl)-1,2,4-oxadiazol-5-yl)-[1,1′-biphenyl]-4-carboxamide] | 1000 to 10000 |
| CN(C)S(=O)(=O)c1cccc(-c2cccc(-c3nc(C4CCCN4C#N)no3)c2)c1 (stereo not drawn) [Example 150, 3′-(3-(1-Cyanopyrrolidin-2-yl)-1,2,4-oxadiazol-5-yl)-N,N-dimethyl-[1,1′-biphenyl]-3-sulfonamide] | 1000 to 10000 |
| Cn1ncc2cc(-c3cccc(-c4nc(C5CCCN5C#N)no4)c3)ccc21 (stereo not drawn) [Example 151] | 100 to 1000 |
| N#CN1CCCC1c1noc(-c2cccc(-c3cccnc3)c2)n1 (stereo not drawn) [Example 152, 2-(5-(3-(Pyridin-3-yl)phenyl)-1,2,4-oxadiazol-3-yl)pyrrolidine-1-carbonitrile] | 100 to 1000 |
| CS(=O)(=O)c1ccc(-c2cccc(-c3nc(C4CCCN4C#N)no3)c2)cc1 (stereo not drawn) [Example 153, 2-(5-(4′-(Methylsulfonyl)-[1,1′-biphenyl]-3-yl)-1,2,4-oxadiazol-3-yl)pyrrolidine-1-carbonitrile] | 100 to 1000 |
| Cc1ccc(-c2cccc(-c3nc(C4CCCN4C#N)no3)c2)cn1 (stereo not drawn) [Example 154, 2-(5-(3-(6-Methylpyridin-3-yl)phenyl)-1,2,4-oxadiazol-3-yl)pyrrolidine-1-carbonitrile] | 100 to 1000 |

| SMILES | IC50 [nM] |
| --- | --- |
| N#Cc1ccccc1-c1cccc(-c2nc(C3CCCN3C#N)no2)c1 (stereo not drawn) [Example 155, 2-(5-(2′-Cyano-[1,1′-biphenyl]-3-yl)-1,2,4-oxadiazol-3-yl)pyrrolidine-1-carbonitrile] | 100 to 1000 |
| COC(=O)c1ccccc1-c1cccc(-c2nc(C3CCCN3C#N)no2)c1 (stereo not drawn) [Example 156, Methyl 3′-(3-(1-cyanopyrrolidin-2-yl)-1,2,4-oxadiazol-5-yl)-[1,1′-biphenyl]-2-carboxylate] | 100 to 1000 |
| N#CN1CCCC1c1noc(-c2cccc(-c3ccc([N+](=O)[O-])cc3)c2)n1 (stereo not drawn) [Example 157, 2-(5-(4′-Nitro-[1,1′-biphenyl]-3-yl)-1,2,4-oxadiazol-3-yl)pyrrolidine-1-carbonitrile] | < 100 |
| COc1ccc(-c2cccc(-c3nc(C4CCCN4C#N)no3)c2)cn1 (stereo not drawn) [Example 158, 2-(5-(3-(6-Methoxypyridin-3-yl)phenyl)-1,2,4-oxadiazol-3-yl)pyrrolidine-1-carbonitrile] | 1000 to 10000 |
| N#CN1CCCC1c1noc(-c2cccc(-c3cncnc3)c2)n1 (stereo not drawn) [Example 159, 2-(5-(3-(Pyrimidin-5-yl)phenyl)-1,2,4-oxadiazol-3-yl)pyrrolidine-1-carbonitrile] | 1000 to 10000 |
| N#CN1CCCC1c1noc(-c2cccc(-c3ccoc3)c2)n1 (stereo not drawn) [Example 160, 2-(5-(3-(Furan-3-yl)phenyl)-1,2,4-oxadiazol-3-yl)pyrrolidine-1-carbonitrile] | 100 to 1000 |
| COc1ncccc1-c1cccc(-c2nc(C3CCCN3C#N)no2)c1 (stereo not drawn) [Example 162, 2-(5-(3-(2-Methoxypyridin-3-yl)phenyl)-1,2,4-oxadiazol-3-yl)pyrrolidine-1-carbonitrile] | 100 to 1000 |
| N#Cc1cc(F)cc(-c2cccc(-c3nc(C4CCCN4C#N)no3)c2)c1 (stereo not drawn) [Example 163, 2-(5-(3′-Cyano-5′-fluoro-[1,1′-biphenyl]-3-yl)-1,2,4-oxadiazol-3-yl)pyrrolidine-1-carbonitrile] | < 100 |
| Cc1cncc(-c2cccc(-c3nc(C4CCCN4C#N)no3)c2)c1 (stereo not drawn) [Example 164, 2-(5-(3-(5-Methylpyridin-3-yl)phenyl)-1,2,4-oxadiazol-3-yl)pyrrolidine-1-carbonitrile] | 1000 to 10000 |
| Cc1cccc2cc(-c3cccc(-c4nc(C5CCCN5C#N)no4)c3)[nH]c12 (stereo not drawn) [Example 165, 2-(5-(3-(7-Methyl-1H-indo1-2-yl)phenyl)-1,2,4-oxadiazol-3-yl)pyrrolidine-1-carbonitrile] | 100 to 1000 |
| N#CN1CCCC1c1noc(-c2ccnc(-c3ccccc3)c2)n1 (stereo not drawn) [Example 167] | 100 to 1000 |
| N#CN1CCCC1c1noc(-c2ccnc(-c3cccc(OC(F)(F)F)c3)c2)n1 (stereo not drawn) [Example 168, 2-(5-(2-(3-(Trifluoromethoxy)phenyl)-pyridin-4-yl)-1,2,4-oxadiazol-3-yl)pyrrolidine-1-carbonitrile] | 100 to 1000 |
| N#CN1CCCC1c1noc(-c2ccnc(-c3ccc(OC(F)(F)F)cc3)c2)n1 (stereo not drawn) [Example 169, 2-(5-(2-(4-(Trifluoromethoxy)phenyl)-pyridin-4-yl)-1,2,4-oxadiazol-3-yl)pyrrolidine-1-carbonitrile] | 1000 to 10000 |
| N#CN1CCCC1c1noc(-c2ccnc(-c3cccc(C(N)=O)c3)c2)n1 (stereo not drawn) [Example 170, 3-(4-(3-(1-Cyanopyrrolidin-2-yl)-1,2,4-oxadiazol-5-yl)pyridin-2-yl)benzamide] | 1000 to 10000 |
| CNC(=O)c1cccc(-c2cc(-c3nc(C4CCCN4C#N)no3)ccn2)c1 (stereo not drawn) [Example 171, 3-(4-(3-(1-Cyanopyrrolidin-2-yl)-1,2,4-oxadiazol-5-yl)pyridin-2-yl)-N-methylbenzamide] | 1000 to 10000 |
| N#Cc1cccc(-c2ccnc(-c3nc(C4CCCN4C#N)no3)c2)c1 (stereo not drawn) [Example 172, 2-(5-(4-(3-Cyanophenyl)pyridin-2-yl)-1,2,4-oxadiazol-3-yl)pyrrolidine-1-carbonitrile] | 100 to 1000 |
| N#Cc1ccc(-c2cccc(-c3nc([C@@H]4CCCN4C#N)no3)c2)cc1 [Example 174, (S)-2-(5-(4′-Cyano-[1,1′-biphenyl]-3-yl)-1,2,4-oxadiazol-3-yl)pyrrolidine-1-carbonitrile] | < 100 |
| N#Cc1ccc(-c2cccc(-c3nc([C@@H]4CCCN4C#N)no3)n2)cc1 [Example 175, (S)-2-(5-(6-(4-Cyanophenyl)pyridin-2-yl)-1,2,4-oxadiazol-3-yl)pyrrolidine-1-carbonitrile] | < 100 |
| N#Cc1ccc(-c2ccnc(-c3nc([C@@H]4CCCN4C#N)no3)c2)cc1 [Example 176, (S)-2-(5-(4-(4-Cyanophenyl)pyridin-2-yl)-1,2,4-oxadiazol-3-yl)pyrrolidine-1-carbonitrile] | 100 to 1000 |
| N#Cc1ccc(-c2cc(-c3nc([C@@H]4CCCN4C#N)no3)ccn2)cc1 [Example 177, (S)-2-(5-(2-(4-Cyanophenyl)pyridin-4-yl)-1,2,4-oxadiazol-3-yl)pyrrolidine-1-carbonitrile] | 100 to 1000 |
| N#Cc1ccc2ccc(-c3nc([C@@H]4CCCN4C#N)no3)cc2c1 [Example 178, (S)-2-(5-(7-Cyanonaphthalen-2-yl)-1,2,4-oxadiazol-3-yl)pyrrolidine-1-carbonitrile] | 100 to 1000 |
